# Measured values reported in paper PMC5645029 (Journal of medicinal chemistry, 2017).
# Entries after “also recorded” stand apart in the source; their conditions may differ. Non-standard residues stand in square brackets, D forms with d. Residues, ends and D or L forms follow the SMILES beside them.
# B1: c[Pro-Arg-Phe-Phe-Asn-His-Phe-DPro] (peptide)
# peptide: cyclo(PRFFNHF[dP])
# SMILES: N=C(N)NCCC[C@@H]1NC(=O)[C@@H]2CCCN2C(=O)[C@H]2CCCN2C(=O)[C@H](Cc2ccccc2)NC(=O)[C@H](Cc2c[nH]cn2)NC(=O)[C@H](CC(N)=O)NC(=O)[C@H](Cc2ccccc2)NC(=O)[C@H](Cc2ccccc2)NC1=O
# B2: c[Pro-Arg-Phe-Phe-Asn-Leu-Phe-DPro] (peptide)
# peptide: cyclo(PRFFNLF[dP])
# SMILES: CC(C)C[C@@H]1NC(=O)[C@H](CC(N)=O)NC(=O)[C@H](Cc2ccccc2)NC(=O)[C@H](Cc2ccccc2)NC(=O)[C@H](CCCNC(=N)N)NC(=O)[C@@H]2CCCN2C(=O)[C@H]2CCCN2C(=O)[C@H](Cc2ccccc2)NC1=O
# B3: c[Pro-Arg-Phe-Phe-Asn-Glu-Phe-DPro] (peptide)
# peptide: cyclo(PRFFNEF[dP])
# SMILES: N=C(N)NCCC[C@@H]1NC(=O)[C@@H]2CCCN2C(=O)[C@H]2CCCN2C(=O)[C@H](Cc2ccccc2)NC(=O)[C@H](CCC(=O)O)NC(=O)[C@H](CC(N)=O)NC(=O)[C@H](Cc2ccccc2)NC(=O)[C@H](Cc2ccccc2)NC1=O
# How the values were obtained:
# [1] = target: T1, mMC4R (Mus musculus, UniProt P56450); settings: for fold less potent at the MC4R compared to 1: antagonist potency relative to 1
# T1 sequence (P56450 whole entry): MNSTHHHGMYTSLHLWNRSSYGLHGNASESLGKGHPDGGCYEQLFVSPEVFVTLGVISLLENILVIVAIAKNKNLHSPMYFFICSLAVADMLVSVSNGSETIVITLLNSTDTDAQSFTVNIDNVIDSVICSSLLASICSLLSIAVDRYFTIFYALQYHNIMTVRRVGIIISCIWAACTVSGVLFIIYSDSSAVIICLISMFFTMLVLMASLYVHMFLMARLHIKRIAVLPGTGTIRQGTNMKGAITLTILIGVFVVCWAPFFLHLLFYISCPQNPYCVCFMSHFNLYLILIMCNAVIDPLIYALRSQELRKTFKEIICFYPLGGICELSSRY
# [2] = target: T2, mMC5R (Mus musculus, UniProt P41149); assay: cell-based
# T2 sequence (P41149 whole entry): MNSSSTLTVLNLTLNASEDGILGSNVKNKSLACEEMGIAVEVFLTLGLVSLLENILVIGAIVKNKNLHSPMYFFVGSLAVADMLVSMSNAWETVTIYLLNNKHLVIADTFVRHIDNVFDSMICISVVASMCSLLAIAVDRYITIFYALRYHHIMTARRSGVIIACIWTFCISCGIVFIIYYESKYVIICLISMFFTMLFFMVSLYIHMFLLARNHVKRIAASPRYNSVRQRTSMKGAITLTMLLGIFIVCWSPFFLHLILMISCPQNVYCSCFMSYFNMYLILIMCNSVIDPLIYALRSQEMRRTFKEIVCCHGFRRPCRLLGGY
# [3] = target: mMC1R (Mus musculus, UniProt Q01727); assay: AlphaScreen cAMP assay, agonist activity; settings: up to 100 μM concentrations
# mMC1R, sequence (Q01727 whole entry): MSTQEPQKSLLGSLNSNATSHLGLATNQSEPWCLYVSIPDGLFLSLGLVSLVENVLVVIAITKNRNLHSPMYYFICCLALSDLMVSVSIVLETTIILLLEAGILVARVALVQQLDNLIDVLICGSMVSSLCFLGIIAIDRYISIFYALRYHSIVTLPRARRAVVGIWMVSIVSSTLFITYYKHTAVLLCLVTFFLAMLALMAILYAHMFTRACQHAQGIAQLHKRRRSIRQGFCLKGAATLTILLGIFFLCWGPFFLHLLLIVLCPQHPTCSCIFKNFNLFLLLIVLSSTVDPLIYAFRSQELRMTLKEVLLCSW
# [4] = target: T3, mMC3R (Mus musculus, UniProt P33033); assay: AlphaScreen cAMP assay, agonist activity; settings: up to 100 μM concentrations
# T3 sequence (P33033 whole entry): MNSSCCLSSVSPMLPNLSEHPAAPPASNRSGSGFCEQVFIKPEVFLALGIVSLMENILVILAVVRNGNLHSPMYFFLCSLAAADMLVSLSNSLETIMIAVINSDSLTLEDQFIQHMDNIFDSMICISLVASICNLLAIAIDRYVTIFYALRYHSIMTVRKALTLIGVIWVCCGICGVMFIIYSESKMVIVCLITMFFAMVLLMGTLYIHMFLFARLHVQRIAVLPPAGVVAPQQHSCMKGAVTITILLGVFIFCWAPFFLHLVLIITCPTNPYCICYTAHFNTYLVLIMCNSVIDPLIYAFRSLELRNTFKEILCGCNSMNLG
# [5] = target: T1, mMC4R; assay: AlphaScreen cAMP assay, agonist activity; settings: up to 100 μM concentrations
# [6] = target: T3, mMC3R; assay: AlphaScreen cAMP assay, antagonist activity; settings: Schild paradigm, NDP-MSH
# [7] = target: T2, mMC5R
# [8] = target: mouse melanocortin-1 receptor (mouse) (UniProt Q01727)
# mouse melanocortin-1 receptor (mouse), sequence (Q01727 whole entry): as the sequence (Q01727 whole entry) above
# [9] = target: mouse melanocortin-3 receptor (mouse) (UniProt P33033)
# mouse melanocortin-3 receptor (mouse), sequence (P33033 whole entry): as the sequence (P33033 whole entry) above
# [10] = target: mouse melanocortin-4 receptor (mouse) (UniProt P56450)
# mouse melanocortin-4 receptor (mouse), sequence (P56450 whole entry): as the sequence (P56450 whole entry) above
# [11] = target: mouse melanocortin-5 receptor (mouse) (UniProt P41149)
# mouse melanocortin-5 receptor (mouse), sequence (P41149 whole entry): as the sequence (P41149 whole entry) above
molecule,measurement,setting,value
"C[C@@H]1NC(=O)[C@H]([C@@H](C)O)NC(=O)[C@H](Cc2ccccc2)NC(=O)[C@H](Cc2ccccc2)NC(=O)[C@H](CCCNC(=N)N)NC(=O)[C@@H]2CCCN2C(=O)[C@H]2CCCN2C(=O)[C@H](Cc2ccccc2)NC1=O [Peptide 6, c[Pro-Arg-Phe-Phe-Thr-Ala-Phe-DPro]] (cyclo(RFFTAF[dP]P))",fold more potent at the MC4R compared to 13,[1]; antagonist potency relative to 13,70 fold
same,EC50,[2],50 nM
same,agonist activity at the MC1R (in words),[3],No agonist activity
same,agonist activity at the MC3R (in words),[4],No agonist activity
same,agonist activity at the MC4R (in words),[5],No agonist activity
"C[C@@H]1NC(=O)[C@H](C)NC(=O)[C@H](Cc2ccccc2)NC(=O)[C@H](Cc2ccccc2)NC(=O)[C@H](CCCNC(=N)N)NC(=O)[C@@H]2CCCN2C(=O)[C@H]2CCCN2C(=O)[C@H](Cc2ccccc2)NC1=O [Peptide 3, c[Pro-Arg-Phe-Phe-Ala-Ala-Phe-DPro]]",fold less potent at the MC4R compared to 1,[1],8 fold
same,EC50,[2],250 nM
same,antagonist activity at the MC3R (in words),[6],did not possess antagonist activity
"N=C(N)NCCC[C@@H]1NC(=O)[C@@H]2CCCN2C(=O)[C@H]2CCCN2C(=O)[C@H](Cc2ccccc2)NC(=O)[C@H](CCCCN)NC(=O)[C@H](CC(N)=O)NC(=O)[C@H](Cc2ccccc2)NC(=O)[C@H](Cc2ccccc2)NC1=O [Peptide 18, c[Pro-Arg-Phe-Phe-Asn-Lys-Phe-DPro]]",activity at the MC5R (in words),[7],partially stimulated
"C[C@@H]1NC(=O)[C@H](Cc2ccccc2)NC(=O)[C@H](Cc2ccccc2)NC(=O)[C@H](Cc2ccccc2)NC(=O)[C@H](CCCNC(=N)N)NC(=O)[C@@H]2CCCN2C(=O)[C@H]2CCCN2C(=O)[C@H](Cc2ccccc2)NC1=O [Peptide 14, c[Pro-Arg-Phe-Phe-Phe-Ala-Phe-DPro]]",activity at the MC5R (in words),[7],no activity
"C[C@@H]1NC(=O)[C@H](Cc2c[nH]cn2)NC(=O)[C@H](Cc2ccccc2)NC(=O)[C@H](Cc2ccccc2)NC(=O)[C@H](CCCNC(=N)N)NC(=O)[C@@H]2CCCN2C(=O)[C@H]2CCCN2C(=O)[C@H](Cc2ccccc2)NC1=O [Peptide 10, c[Pro-Arg-Phe-Phe-His-Ala-Phe-DPro]]","mMC5R inverse agonist, percent decrease from basal",[7],10%
same,EC50,[2],10 nM
same,agonist activity at the MC1R (in words),[3],no agonist activity
same,agonist activity at the MC3R (in words),[4],no agonist activity
same,agonist activity at the MC4R (in words),[5],no agonist activity
"N=C(N)NCCC[C@@H]1NC(=O)[C@@H]2CCCN2C(=O)[C@H]2CCCN2C(=O)[C@H](Cc2ccccc2)NC(=O)[C@H](CC(=O)O)NC(=O)[C@H](CC(N)=O)NC(=O)[C@H](Cc2ccccc2)NC(=O)[C@H](Cc2ccccc2)NC1=O [Peptide 16, c[Pro-Arg-Phe-Phe-Asn-Asp-Phe-DPro]] (cyclo(RFFNDF[dP]P))",agonist activity at the MC3R (in words),[4],did not result in observable agonist or antagonist activity
same,agonist activity at the MC4R (in words),[5],did not result in observable agonist or antagonist activity
same,antagonist activity at the MC3R (in words),[6],did not result in observable agonist or antagonist activity; also recorded: did not possess antagonist activity
"C[C@@H]1NC(=O)[C@H](CC(=O)O)NC(=O)[C@H](Cc2ccccc2)NC(=O)[C@H](Cc2ccccc2)NC(=O)[C@H](CCCNC(=N)N)NC(=O)[C@@H]2CCCN2C(=O)[C@H]2CCCN2C(=O)[C@H](Cc2ccccc2)NC1=O [Peptide 7, c[Pro-Arg-Phe-Phe-Asp-Ala-Phe-DPro]]",agonist activity at the MC1R (in words),[3],no agonist activity
same,agonist activity at the MC3R (in words),[4],no agonist activity
same,agonist activity at the MC4R (in words),[5],no agonist activity
same,antagonist activity at the MC3R (in words),[6],did not possess antagonist activity
"CC(C)[C@@H]1NC(=O)[C@H](Cc2ccccc2)NC(=O)[C@H](Cc2ccccc2)NC(=O)[C@H](CCCNC(=N)N)NC(=O)[C@@H]2CCCN2C(=O)[C@H]2CCCN2C(=O)[C@H](Cc2ccccc2)NC(=O)[C@H](C)NC1=O [Peptide 13, c[Pro-Arg-Phe-Phe-Val-Ala-Phe-DPro]]",fold less potent at the MC4R compared to 1,[1],at least 8 fold
same,EC50,[2],510 nM
"C[C@@H]1NC(=O)[C@H](CCC(=O)O)NC(=O)[C@H](Cc2ccccc2)NC(=O)[C@H](Cc2ccccc2)NC(=O)[C@H](CCCNC(=N)N)NC(=O)[C@@H]2CCCN2C(=O)[C@H]2CCCN2C(=O)[C@H](Cc2ccccc2)NC1=O [Peptide 8, c[Pro-Arg-Phe-Phe-Glu-Ala-Phe-DPro]]",fold less potent at the MC4R compared to 1,[1],16 fold
same,EC50,[2],700 nM
same,agonist activity at the MC3R (in words),[4],did not result in measurable activity
same,antagonist activity at the MC3R (in words),[6],did not result in measurable activity
"CC(C)C[C@@H]1NC(=O)[C@H](CC(N)=O)NC(=O)[C@H](Cc2ccccc2)NC(=O)[C@H](Cc2ccccc2)NC(=O)[C@H](CCCNC(=N)N)NC(=O)[C@@H]2CCCN2C(=O)[C@H]2CCCN2C(=O)[C@H](Cc2ccccc2)NC1=O [Peptide 22, c[Pro-Arg-Phe-Phe-Asn-Leu-Phe-DPro]]",activity at the MC5R (in words),[7],no activity
c[Pro-Arg-Phe-Phe-Nle-Ala-Phe-DPro] (peptide),"agonist EC50 (cAMP AlphaScreen, HEK293 cells stably expressing the receptor)",[8],> 100000 nM
same,"agonist EC50 (cAMP AlphaScreen, HEK293 cells stably expressing the receptor)",[9],> 100000 nM
same,"agonist EC50 (cAMP AlphaScreen, HEK293 cells stably expressing the receptor)",[10],> 100000 nM
same,"agonist EC50 (cAMP AlphaScreen, HEK293 cells stably expressing the receptor)",[11],> 100000 nM
"N=C(N)NCCC[C@@H]1NC(=O)[C@@H]2CCCN2C(=O)[C@H]2CCCN2C(=O)[C@H](Cc2ccccc2)NC(=O)[C@H](CCC(=O)O)NC(=O)[C@H](CC(N)=O)NC(=O)[C@H](Cc2ccccc2)NC(=O)[C@H](Cc2ccccc2)NC1=O [Peptide 17, c[Pro-Arg-Phe-Phe-Asn-Glu-Phe-DPro]] (cyclo(RFFNEF[dP]P))",activity at the MC5R (in words),[7],no activity
same,agonist activity at the MC3R (in words),[4],did not result in observable agonist or antagonist activity
same,agonist activity at the MC4R (in words),[5],did not result in observable agonist or antagonist activity
same,antagonist activity at the MC3R (in words),[6],did not result in observable agonist or antagonist activity; also recorded: did not possess antagonist activity
"CC[C@@H]1NC(=O)[C@H](Cc2ccccc2)NC(=O)[C@H](Cc2ccccc2)NC(=O)[C@H](CCCNC(=N)N)NC(=O)[C@@H]2CCCN2C(=O)[C@H]2CCCN2C(=O)[C@H](Cc2ccccc2)NC(=O)[C@H](C)NC1=O [Peptide 4, c[Pro-Arg-Phe-Phe-Abu-Ala-Phe-DPro]]",EC50,[2],160 nM
same,antagonist activity at the MC3R (in words),[6],did not possess antagonist activity
"CCCC[C@@H]1NC(=O)[C@H](Cc2ccccc2)NC(=O)[C@H](Cc2ccccc2)NC(=O)[C@H](CCCNC(=N)N)NC(=O)[C@@H]2CCCN2C(=O)[C@H]2CCCN2C(=O)[C@H](Cc2ccccc2)NC(=O)[C@H](C)NC1=O [Peptide 11, c[Pro-Arg-Phe-Phe-Nle-Ala-Phe-DPro]]",fold less potent at the MC4R compared to 1,[1],at least 8 fold
same,activity at the MC5R (in words),[7],no activity
"CC(C)C[C@@H]1NC(=O)[C@H](Cc2ccccc2)NC(=O)[C@H](Cc2ccccc2)NC(=O)[C@H](CCCNC(=N)N)NC(=O)[C@@H]2CCCN2C(=O)[C@H]2CCCN2C(=O)[C@H](Cc2ccccc2)NC(=O)[C@H](C)NC1=O [Peptide 12, c[Pro-Arg-Phe-Phe-Leu-Ala-Phe-DPro]] (cyclo(RFFLAF[dP]P))",fold less potent at the MC4R compared to 1,[1],at least 8 fold
same,EC50,[2],110 nM
B1,"agonist EC50 (cAMP AlphaScreen, HEK293 cells stably expressing the receptor)",[9],> 100000 nM
same,"agonist EC50 (cAMP AlphaScreen, HEK293 cells stably expressing the receptor)",[10],> 100000 nM
same,"agonist EC50 (cAMP AlphaScreen, HEK293 cells stably expressing the receptor)",[11],> 100000 nM
B2,"agonist EC50 (cAMP AlphaScreen, HEK293 cells stably expressing the receptor)",[11],> 100000 nM
B3,"agonist EC50 (cAMP AlphaScreen, HEK293 cells stably expressing the receptor)",[9],> 100000 nM
same,"agonist EC50 (cAMP AlphaScreen, HEK293 cells stably expressing the receptor)",[10],> 100000 nM
same,"agonist EC50 (cAMP AlphaScreen, HEK293 cells stably expressing the receptor)",[11],> 100000 nM
